Reference: US20240300980A1, “HETEROCYCLIC COMPOUNDS AS KRAS INHIBITOR, AND PREPARATION THEREFOR AND USE THEREOF IN TREATMENT” (SHANGHAI KECHOW PHARMA, INC., priority 2021, published 2024)

System: AGS cells (KRAS^G12D)
Test: Detection of cell proliferation in vitro by MTT/MTS method (cell activity experiment)
Format: cell-based
Conditions: AGS cells; MTT/MTS; 3 days of drug treatment; read-out: AGS IC50
Summary of the method: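 KRAS G12D AGS cells seeded at 1000 per well, compound added 24 h later, 0.5% final DMSO. Viability read after 3 days of treatment by MTT (solubilised in DMSO) or MTS, 4 h, absorbance 490 nm. IC50 from dose–response curves versus DMSO control.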

**Q.** With `C#Cc1c(F)ccc2cc(O)cc(-c3ccc4c(N5C[C@H]6CC[C@@H](C5)[C@@H]6N)nc(OC[C@@]56CCCN5C[C@H](F)C6)nc4c3F)c12` [Example 128, 4-(4-((1R,5S,8R)-8-amino-3-azabicyclo [3.2.1]octan-3-yl)-8-fluoro-2-(((2R,7aS)-2-fluorotetrahydro-1H-pyrrolizin-7a(5H)-yl)methoxy)quinazolin-7-yl)-5-ethynyl-6-fluoronaphthalen-2-ol] as the compound, how does the IC50 read?
**A.** The IC50 was over 2.5 µM.

**Q.** Which IC50 does the source give for `CCC1CCCc2cc(O)cc(-c3ccc4c(N5C[C@H]6CC[C@@H](C5)N6)nc(OC[C@@]56CCCN5C[C@H](F)C6)nc4c3F)c21` (single isomer, unassigned) [Example 290] here?
**A.** Its IC50 is 3.41 µM.

**Q.** For `C#Cc1c(F)ccc2cc(O)cc(-c3cc4nc(OC[C@@]56CCCN5C[C@H](F)C6)nc(N5C[C@H]6CC[C@@H](C5)N6)c4c4occc34)c12` [Example 384, 4-(9-((2R,5S)-3,8-diazabicyclo[3.2.1]octan-3-yl)-7-(((2R,7aS)-2-fluorotetrahydro-1H-pyrrolizin-7a(5H)-yl)methoxy)furo[2,3-f]quinazolin-4-yl)-5-ethynyl-6-fluoronaphthalen-2-ol], which IC50 is on record?
**A.** The IC50 was 0.212 µM.

Same assay, conditions: Homo sapiens, AGS, 72 h, AGS cells; MTT/MTS; 3 days of drug treatment; read-out: AGS IC50

**Q.** How did the IC50 turn out when `C#Cc1c(F)ccc2cc(O)cc(-c3ncc4c(N5CCC(NS(C)(=O)=O)C5)nc(OC[C@@]56CCCN5C[C@H](F)C6)nc4c3F)c12` (stereo partly drawn) [Example 59, N-(1-(7-(8-ethynyl-7-fluoro-3-hydroxynaphthalen-1-yl)-8-fluoro-2-(((2R, 7aS)-2-fluorotetrahydro-1H-pyrrolizin-7a(5H)-yl)methoxy)pyrido[4,3-d]pyrimidin-4-yl)pyrrolidin-3-yl) methanesulfonamide] was run?
**A.** Its IC50 is over 2.5 µM.

**Q.** With `COC1CCCc2cc(O)cc(-c3ncc4c(N5C[C@H]6CC[C@@H](C5)N6)nc(OC[C@@]56CCCN5C[C@H](F)C6)nc4c3F)c21` (stereo partly drawn) [Example 270, 4-(4-((1R,5S)-3,8-diazabicyclo[3.2.1]octan-3-yl)-8-fluoro-2-(((2R,7aS)-2-fluorotetrahydro-1H-pyrrolizin-7a(5H)-yl)methoxy)pyrido[4,3-d]pyrimidin-7-yl)-5-methoxy-5,6,7,8-tetrahydronaphthalen-2-ol] as the compound, how does the IC50 read?
**A.** The IC50 was 0.02 µM.

**Q.** `C#Cc1c(F)ccc2cc(O)cc(-c3ccc4c(N5CC(C(C)(C)N)C5)nc(OC[C@@]56CCCN5C[C@H](F)C6)nc4c3F)c12` [Example 212, 4-(4-(3-(2-aminopropan-2-yl)azetidin-1-yl)-8-fluoro-2-(((2R,7aS)-2-fluorotetrahydro-1H-pyrrolizin-7a(5H)-yl)methoxy)quinazolin-7-yl)-5-ethynyl-6-fluoronaphthalen-2-ol] was tested. Which IC50 did it give?
**A.** The IC50 was 0.419 µM.

**Q.** With `C#Cc1c(F)ccc2cc(O)cc(-c3ncc4c(N5CC6CCC(C5)C6[S+](C)[O-])nc(OC[C@@]56CCCN5C[C@H](F)C6)nc4c3F)c12` (stereo partly drawn) [Example 65, 5-ethynyl-6-fluoro-4-(8-fluoro-2-(((2R,7aS)-2-fluorotetrahydro-1H-pyrrolizin-7a(5H)-yl)methoxy)-4-((1R,5S, 8R)-8-(methylsulfinyl)-3-azabicyclo[3.2.1]octan-3-yl)pyrido[4,3-d]pyrimidin-7-yl) naphthalen-2-ol] as the compound, how does the IC50 read?
**A.** Its IC50 is over 10 µM.

**Q.** How did the IC50 turn out when `CC1CCCc2cc(O)cc(-c3c4c(c5c(N6C[C@H]7CC[C@@H](C6)N7)nc(OC[C@@]67CCCN6C[C@H](F)C7)nc5c3F)OCO4)c21` (stereo partly drawn) [Example 391, 4-(9-((1R,5S)-3,8-diazabicyclo[3.2.1]octan-3-yl)-5-fluoro-7-(((2R,7aS)-2-fluorotetrahydro-1H-pyrrolizin-7a(5H)-yl)methoxy)-[1,3]dioxolo[4,5-f]quinazolin-4-yl)-5-methyl-5,6,7,8-tetrahydronaphthalen-2-ol] was run?
**A.** The IC50 was 0.1 µM.

**Q.** For `N#Cc1c(OC[C@@]23CCCN2C[C@H](F)C3)nc2c(F)c(-c3cc(O)cc4cccc(F)c34)ccc2c1N1C[C@H]2CC[C@@H](C1)N2` [Example 180, 4-((1R,5S)-3,8-diazabicyclo[3.2.1]octan-3-yl)-8-fluoro-7-(8-fluoro-3-hydroxynaphthalen-1-yl)-2-(((2R,7aS)-2-fluorotetrahydro-1H-pyrrolizin-7a(5H)-yl)methoxy)quinoline-3-carbonitrile], which IC50 is on record?
**A.** Its IC50 is 0.556 µM.

**Q.** `C#Cc1nccc2cc(O)cc(-c3ncc4c(N5C[C@H]6CC[C@@H](C5)N6)nc(OC[C@@]56CCCN5C[C@H](F)C6)nc4c3F)c12` [Example 339, 8-(4-((1R,5S)-3,8-diazabicyclo[3.2.1]octan-3-yl)-8-fluoro-2-(((2R,7aS)-2-fluorotetrahydro-1H-pyrrolizin-7a(5H)-yl)methoxy)pyrido[4,3-d]pyrimidin-7-yl)-1-ethynylisoquinolin-6-ol] was tested. Which IC50 did it give?
**A.** The IC50 was 0.015 µM.

**Q.** `Cc1cc(N)nc(-c2ccc3c(N4C[C@H]5CC[C@@H](C4)N5)nc(OC[C@@]45CCCN4C[C@H](F)C5)nc3c2F)c1C1CC1` [Example 139, 6-(4-((1R,5S)-3,8-diazabicyclo[3.2.1]octan-3-yl)-8-fluoro-2-(((2R,7aS)-2-fluorotetrahydro-1H-pyrrolizin-7a(5H)-yl)methoxy)quinazolin-7-yl)-5-cyclopropyl-4-methylpyridin-2-amine] was tested. Which IC50 did it give?
**A.** Its IC50 is over 2.5 µM.

**Q.** For `CCc1ccc2cc(O)cc(C3=C(F)c4nc(OC[C@@]56CCCN5C[C@H](F)C6)nc(N5C[C@H]6CC[C@@H](C5)N6)c4C4=NCCN43)n12` [Example 412, 5-(10-((1R,5S)-3,8-diazabicyclo[3.2.1]octan-3-yl)-6-fluoro-8-(((2R,7aS)-2-fluorotetrahydro-1H-pyrrolizin-7a(5H)-yl)methoxy)-2,3-dihydroimidazo[1′,2′:1,2]pyrido[4,3-d]pyrimidin-5-yl)-3-ethylindolizin-7-ol], which IC50 is on record?
**A.** The IC50 was 0.035 µM.

**Q.** Which IC50 does the source give for `C#Cc1cccc2cc(O)cc(-c3ccc4c(N5C[C@H]6CC[C@@H](C5)N6)nc(OC[C@@]56CCCN5C[C@H](F)C6)nc4c3F)c12` [Example 89, 4-(4-((1R,5S)-3,8-diazabicyclo[3.2.1]octan-3-yl)-8-fluoro-2-(((2R,7aS)-2-fluorotetrahydro-1H-pyrrolizin-7a(5H)-yl)methoxy)quinazolin-7-yl)-5-ethynylnaphthalen-2-ol] here?
**A.** Its IC50 is 0.0015 µM.

**Q.** For `C#Cc1c(F)ccc2cc(O)cc(-c3ccc4c(N5C[C@H]6CC[C@@H](C5)N6)nc(OC[C@]56CCCN5[C@@H](COC(=O)N(C)C)CC6)nc4n3)c12` [Example 145, ((3R,7aR)-7a-(((4-((1R, 5S)-3,8-diazabicyclo [3.2.1]octan-3-yl)-7-(8-ethynyl-7-fluoro-3-hydroxynaphthalen-1-yl)pyrido[2,3-d]pyrimidin-2-yl)oxy)methyl)hexahydro-1H-pyrrolizin-3-yl)methyl dimethylcarbamate], which IC50 is on record?
**A.** Its IC50 is over 2.5 µM.

**Q.** How did the IC50 turn out when `C#Cc1c(F)ccc2cc(O)cc(-c3ncc4c(N5C[C@H]6CC[C@@H](C5)N6)nc(OCC56CC5CN(C)C6)nc4c3F)c12` (stereo partly drawn) [Example 76, 4-(4-((1R,5S)-3,8-diazabicyclo[3.2.1]octan-3-yl)-8-fluoro-2-((3-methyl-3-azabicyclo [3.1.0]hexan-1-yl)methoxy)pyrido[4,3-d]pyrimidin-7-yl)-5-ethynyl-6-fluoronaphthalen-2-ol] was run?
**A.** The IC50 was over 2.5 µM.

**Q.** `C[C@H]1CCCc2cc(O)cc(-c3ncc4c(N5CC6CCC(C5)N6)nc(OC[C@@]56CCCN5C[C@H](F)C6)nc4c3F)c21` (single isomer, unassigned) [Example 226, (S)-4-(4-((1R,5S)-3,8-diazabicyclo[3.2.1]octan-3-yl)-8-fluoro-2-(((2R,7aS)-2-fluorotetrahydro-1H-pyrrolizin-7a(5H)-yl)methoxy)pyrido[4,3-d]pyrimidin-7-yl)-5-methyl-5,6,7,8-tetrahydronaphthalen-2-ol or (R)-4-(4-((1R,5S)-3,8-diazabicyclo[3.2.1]octan-3-yl)-8-fluoro-2-(((2R,7aS)-2-fluorotetrahydro-1H-pyrrolizin-7a(5H)-yl)methoxy)pyrido[4,3-d]pyrimidin-7-yl)-5-methyl-5,6,7,8-tetrahydronaphthalen-2-ol] was tested. Which IC50 did it give?
**A.** Its IC50 is 0.0024 µM.

**Q.** Which IC50 does the source give for `CCc1c(F)ccc2cc(O)cc(-c3ncc4c(C5C[C@H]6CC[C@@H](C5)N6)nc(OC[C@@]56CCCN5C[C@H](F)C6)nc4c3F)c12` (stereo partly drawn) [Example 80, 4-(4-((1R,5S)-8-azabicyclo[3.2.1]octan-3-yl)-8-fluoro-2-(((2R,7aS)-2-fluorotetrahydro-1H-pyrrolizin-7a(5H)-yl)methoxy)pyrido[4,3-d]pyrimidin-7-yl)-5-ethyl-6-fluoronaphthalen-2-ol] here?
**A.** The IC50 was over 2.5 µM.

**Q.** How did the IC50 turn out when `C#Cc1c(F)ccc2cc(O)cc(-c3ccc4c(N5C[C@H]6CC[C@@H](C5)S6)nc(OC[C@@]56CCCN5C[C@H](F)C6)nc4c3F)c12` [Example 158, 4-(4-((1R,5S)-8-thia-3-azabicyclo[3.2.1]octan-3-yl)-8-fluoro-2-(((2R,7aS)-2-fluorotetrahydro-1H-pyrrolizin-7a(5H)-yl)methoxy)quinazolin-7-yl)-5-ethynyl-6-fluoronaphthalen-2-ol] was run?
**A.** The IC50 was 0.235 µM.

**Q.** How did the IC50 turn out when `Oc1cc(-c2ncc3c(N4C[C@H]5CC[C@@H](C4)O5)nc(OC[C@@]45CCCN4C[C@H](F)C5)nc3c2F)c2c(F)cccc2c1` [Example 15, 4-(4-((1R,5S)-8-oxa-3-azabicyclo[3.2.1]octan-3-yl)-8-fluoro-2-(((2R,7aS)-2-fluorotetrahydro-1H-pyrrolizin-7a(5H)-yl)methoxy)pyrido[4,3-d]pyrimidin-7-yl)-5-fluoronaphthalen-2-ol] was run?
**A.** Its IC50 is 0.32 µM.

**Q.** For `Oc1cc(N2CCc3c(nc(OC[C@@]45CCCN4C[C@H](F)C5)nc3N3C[C@H]4CC[C@@H](C3)N4)C2)c2c(F)cccc2c1` [Example 205, 4-(4-((1R,5S)-3,8-diazabicyclo[3.2.1]octan-3-yl)-2-(((2R,7aS)-2-fluorotetrahydro-1H-pyrrolizin-7a(5H)-yl)methoxy)-5,8-dihydropyrido[3,4-d]pyrimidin-7(6H)-yl)-5-fluoronaphthalen-2-ol], which IC50 is on record?
**A.** The IC50 was 0.018 µM.

**Q.** How did the IC50 turn out when `CCc1nccc2cc(O)cc(-c3ccc4c(N5C[C@H]6CC[C@@H](C5)N6)nc(OC[C@@]56CCCN5C[C@H](F)C6)nc4c3F)c12` [Example 344, 8-(4-((1R,5S)-3,8-diazabicyclo[3.2.1]octan-3-yl)-8-fluoro-2-(((2R,7aS)-2-fluorotetrahydro-1H-pyrrolizin-7a(5H)-yl)methoxy)quinazolin-7-yl)-1-ethylisoquinolin-6-ol] was run?
**A.** Its IC50 is 0.035 µM.
